Measured values: US20220274947A1, “NOVEL HETEROARYL-TRIAZOLE COMPOUNDS AS PESTICIDES” (Bayer Aktiengesellschaft, priority 2019, published 2022)

Key:
Assay type in all cases: in vivo
Rhipicephalus sanguineus = Rhipicephalus sanguineus in-vitro contact test, adult brown dog ticks (RHIPSA Cont); settings: 48 h, after 48 hours, read-out: activity (efficacy: 100% means all ticks are dead or moribund); for pest or weed control at 5 µg/cm2, 500 g/ha: application rate 5 μg/cm^2 (=500 g/ha); for pest or weed control at 1 µg/cm2, 100 g/ha: application rate 1 μg/cm^2 (=100 g/ha)
Procedure, shortened: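 Compound in acetone (9 mg/mL stock, diluted to test concentration) is coated onto inner walls of glass tubes by rotation for 2 h at 30 rpm. Efficacy is read after 48 h: ticks are tapped down and held on a 45-50° C plate for at most 5 min, and immotile or uncoordinated ones that fail to climb away count as dead or moribund.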

Ctenocephalides felis [1] = assay: Ctenocephalides felis in-vitro contact test, adult cat flea (CTECFE Cont); settings: application rate 5 μg/cm^2 (=500 g/ha), adult cat fleas, after 48 hours, read-out: activity (efficacy: 100% means all fleas are dead or moribund)
Procedure, shortened: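 Acetone solutions coated on glass tube inner walls (900 ppm giving 5 μg/cm^2), then 5-10 adult fleas added and held 48 h at room temperature. Fleas unable to escape a 45-50° C. heating plate within 5 min scored dead or moribund; efficacy = % dead/moribund.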

Diabrotica balteata = Diabrotica balteata spray test; settings: 168 h, wheat seeds, larvae, after 7 days, read-out: activity (efficacy: 100% means all seedlings have grown up like in the untreated, uninfected control); for pest or weed control at 160 µg/disc, 500 g/ha: application rate 500 g/ha (=160 μg/well); for pest or weed control at 32 µg/disc, 100 g/ha: application rate 100 g/ha (=32 μg/well)
Procedure, shortened: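 Wheat seedlings, germinated 1 day on agar, were sprayed with compound in acetone/DMF diluted in water containing emulsifier, then infested with 10-20 Diabrotica balteata larvae. After 7 days efficacy in % was scored: 100% means seedlings grew like the untreated, uninfected control; 0% means none grew.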

[2] = tested on: Aedes aegypti strain MONHEIM; assay: Aedes aegypti test (AEDSAE surface treatment & contact assay); settings: exposure 30 minutes, 24 hours after contact, read-out: efficacy (mortality); for mortality at 4 mg/m2: surface concentration 4 mg/m^2, glazed tile; for mortality at 20 mg/m2: surface concentration 20 mg/m^2, glazed tile
Procedure, shortened: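 Compound dissolved in acetone (2 mg/ml) with 2000 ppm rapeseed oil methyl ester, pipetted onto glazed tile and dried. Adult mosquitoes exposed on the surface for 30 min; percent mortality scored 24 h after contact.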

Rhipicephalus microplus [3] = assay: Rhipicephalus (Boophilus) microplus injection test (BOOPMI Inj); settings: 168 h, injection into adult engorged female ticks, egg deposition after 7 days, read-out: activity (efficacy: 100% means all eggs are infertile); for pest or weed control at 0.004 mg: application rate 4 μg/tick; for pest or weed control at 0.02 mg: application rate 20 μg/tick
Procedure, shortened: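 Five engorged adult female R. microplus ticks injected into the abdomen with 1 μL of compound diluted in DMSO, then kept in a climate chamber. Fertile egg deposition checked after 7 days; eggs without visible fertility held until hatching at about 42 days. Efficacy: 100% = all eggs infertile, 0% = all fertile.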

Rhipicephalus microplus [4] = assay: Rhipicephalus (Boophilus) microplus in-vitro contact test, larval cattle tick, strain Parkhurst (BOOPMI Cont); settings: application rate 5 μg/cm^2 (=500 g/ha), tick larvae, after 48 hours, read-out: activity (efficacy: 100% means all larvae are dead or moribund)
Procedure, shortened: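 Acetone solutions dried onto glass tube walls (900 ppm giving 5 μg/cm^2); 20-50 pyrethroid-resistant Parkhurst larvae added per tube and held 48 h at 27° C., 85% relative humidity. Efficacy scored by negative geotaxis as % dead or moribund larvae.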

Spodoptera frugiperda = Spodoptera frugiperda spray test; settings: in Zea mays, 168 h, read-out: activity (mortality)
Procedure, shortened: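 Maize leaf sections were sprayed with compound formulated in acetone/DMF and diluted in water containing 1000 ppm emulsifier. Dried leaves were infested with fall armyworm larvae, and percent mortality was scored after 7 days.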

[5] = tested on: Culex quinquefasciatus strain P00; assay: Culex quinquefasciatus test (CULXFA surface treatment & contact assay); settings: surface concentration 20 mg/m^2, glazed tile, exposure 30 minutes, 24 hours after contact, read-out: efficacy (mortality)
Procedure: Culex quinquefasciatus Test (CULXFA Surface Treatment & Contact Assay) Solvent: Aceton+2000 ppm rapeseed oil methyl ester (RME)
(§1) In order to produce a sufficient, active ingredient containing solution it is necessary to solve the test compound in the solvent-mix (acetone at 2 mg/ml/RME 2 000 ppm). This solution is pipetted onto a glazed tile and after evaporation of the acetone, adult mosquitoes of the species Culex quinquefasciatus strain P00 are placed onto the dried surface. The exposure time is 30 minutes. Mortality in percent (%) is determined 24 hours after contact of the insects to the treated surface. 100% mortality means that all tested insects are dead, whereas 0% means that no insect died.

Ctenocephalides felis [6] = assay: Ctenocephalides felis oral test (CTECFE Oral); settings: 48 h, read-out: activity (mortality)
Procedure, shortened: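 About 20 unfed adult cat fleas fed through parafilm on cattle blood containing compound (DMSO concentrate diluted in blood to the desired concentration). Blood held at 37 °C, fleas at room temperature. Mortality (%) scored after 2 days.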

Myzus persicae [7] = assay: Myzus persicae spray test; settings: in Brassica rapa, foliar, 120 h; for mortality at 500 g/ha: read-out: activity (mortality), application rate 500 g/ha, spray, Chinese cabbage leaf disks, after 5 days; for mortality at 100 g/ha: read-out: activity (mortality), application rate 100 g/ha, spray, Chinese cabbage leaf disks, after 5 days
Procedure, shortened: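 Compound in acetone/DMF solvent diluted in water with 1000 ppm alkylarylpolyglycol ether emulsifier, sprayed onto Chinese cabbage leaf disks infested with all instars of Myzus persicae. Mortality (%) scored after 5 days.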

[8] = tested on: Anopheles funestus strain FUMOZ-R; assay: Anopheles funestus test (ANPHFU surface treatment & contact assay); settings: exposure 30 minutes, 24 hours after contact, read-out: efficacy (mortality); for mortality at 20 mg/m2: surface concentration 20 mg/m^2, glazed tile; for mortality at 4 mg/m2: surface concentration 4 mg/m^2, glazed tile
Procedure: Anopheles funestus Test (ANPHFU Surface Treatment & Contact Assay) Solvent: Aceton+2000 ppm rapeseed oil methyl ester (RME)
as §1, with “2000” for “2 000”, “Anopheles funestus” for “Culex quinquefasciatus”, “FUMOZ-R (Hunt et al., Med. Vet. Entomol. 2005 September; 19(3): 271-275)” for “P00”

Nezara viridula = Nezara viridula spray test; settings: in Hordeum vulgare, 96 h, barley plants, larvae, after 4 days
Procedure, shortened: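 Barley plants infested with N. viridula larvae were sprayed with compound in acetone/DMF diluted with water containing 1000 ppm alkylarylpolyglycol ether emulsifier. Mortality (%) was scored after 4 days; 100% means all bugs killed, 0% none.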

[9] = tested on: Musca domestica strain WHO—N; assay: Musca domestica test (MUSCDO surface treatment & contact assay); settings: surface concentration 20 mg/m^2, glazed tile, exposure 30 minutes, 24 hours after contact, read-out: efficacy (mortality)
Procedure, shortened: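 Compound dissolved in acetone (2 mg/ml) with 2000 ppm rapeseed oil methyl ester and pipetted onto glazed tile; after acetone evaporation, adult flies exposed to dried surface for 30 minutes. Mortality (%) scored 24 hours after contact.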

Myzus persicae [10] = assay: Myzus persicae oral test; settings: 120 h, read-out: activity (mortality)
Procedure, shortened: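 Percent mortality was recorded at day 5, where 0% means no aphids killed. Compound prepared from an acetone concentrate diluted in water and combined with IPL41 medium containing sugar was offered to mixed-stage green peach aphids, which sucked it through a parafilm seal.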

Row | SMILES | pest or weed control at 5 µg/cm2, 500 g/ha (Rhipicephalus sanguineus) | pest or weed control at 5 µg/cm2 (Ctenocephalides felis [1]) | pest or weed control at 160 µg/disc, 500 g/ha (Diabrotica balteata) | mortality at 20 mg/m2 [2] | pest or weed control at 0.004 mg (Rhipicephalus microplus [3]) | pest or weed control at 0.02 mg (Rhipicephalus microplus [3]) | pest or weed control at 5 µg/cm2 (Rhipicephalus microplus [4]) | mortality at 100 g/ha (Spodoptera frugiperda) | mortality at 500 g/ha (Spodoptera frugiperda) | mortality at 20 mg/m2 [5] | mortality at 100 ppm (Ctenocephalides felis [6]) | pest or weed control at 1 µg/cm2, 100 g/ha (Rhipicephalus sanguineus) | mortality at 20 mg/m2 [8] | pest or weed control at 32 µg/disc, 100 g/ha (Diabrotica balteata) | other results
1 | C[C@H](NC(=O)c1cc(Cl)cc(C(F)(F)F)c1)c1ncnn1-c1cnc(C#N)cn1 [II-1] | 80% | 90% | 100% | 80 to 100% | 100% | 100% | 90% | 100% | 100% | 80 to 100% | 100% |  |  |  | mortality at 4 mg/m2 [2]: 80 to 100%
2 | CC(C)N(C)C(=O)c1ccc(-n2ncnc2[C@H](C)NC(=O)c2cc(Cl)cc(C(F)(F)F)c2)nc1 [II-26] | 80% | 100% |  | 80 to 100% | 100% | 100% | 100% | 83% | 100% |  |  | 100% | 80 to 100% |  | mortality at 500 g/ha (Myzus persicae [7]): 100%
3 | CC(C)C(=O)Nc1ccc(-n2ncnc2[C@H](C)NC(=O)c2cc(Cl)cc(C(F)(F)F)c2)nc1 [II-2, 3-chloro-N-[(1S)-1-{1-[5-(isobutyrylamino)pyridin-2-yl]-1H-1,2,4-triazol-5-yl}ethyl]-5-(trifluoromethyl)benzamide] |  | 90% | 100% |  | 100% | 100% | 100% |  |  | 80 to 100% | 100% |  |  | 100% | mortality at 500 g/ha (Nezara viridula; application rate 500 g/ha): 90%; mortality at 100 g/ha (Myzus persicae [7]): 100%; mortality at 500 g/ha (Myzus persicae [7]): 90%
4 | C[C@H](NC(=O)c1cc(Cl)cc(I)c1)c1ncnn1-c1ccc(C#N)cn1 [II-23] |  | 80% | 100% | 80 to 100% | 100% | 100% | 100% | 100% | 100% |  |  |  | 80 to 100% | 100% | mortality at 20 mg/m2 [9]: 80 to 100%
5 | C[C@H](NC(=O)c1ccc(Cl)c(C(F)(F)F)c1)c1ncnn1-c1ccc(C#N)cn1 [II-10] | 100% |  | 100% |  | 100% | 100% | 100% | 100% | 100% |  | 100% | 80% | 80 to 100% | 100% | mortality at 4 mg/m2 [8]: 80 to 100%
6 | Cc1nc([C@H](C)NC(=O)c2cc(F)cc(C#N)c2)n(-c2ccc(C#N)cn2)n1 [II-105] | 100% | 100% |  |  | 100% |  | 100% | 100% |  |  | 100% | 100% |  | 100% | mortality at 4 ppm (Myzus persicae [10]): 100%; mortality at 100 g/ha (Nezara viridula; application rate 100 g/ha): 100%; mortality at 100 g/ha (Myzus persicae [7]): 90%
7 | C[C@H](NC(=O)c1cc(Cl)cc(OC(F)(F)F)c1)c1ncnn1-c1ncc(OC(F)F)cn1 [II- 30] |  |  |  |  |  |  |  |  |  | 80 to 100% |  |  |  |  | 
8 | Cc1nc([C@H](C)NC(=O)c2cccc(C(F)(F)F)n2)n(-c2ccc(C#N)cn2)n1 [II-48] | 100% |  |  | 80 to 100% | 100% | 100% | 100% |  |  |  | 90% | 100% | 80 to 100% | 100% | mortality at 4 mg/m2 [8]: 80 to 100%; mortality at 4 mg/m2 [2]: 80 to 100%
